In patent US8293979B2, “Weed controller metabolism proteins, genes, thereof and use of the same” (Sumitomo Chemical Company, Limited, priority 2001, dated 2012):

Legend:
[1] = tested on: present invention protein (A1); assay type: in vitro ADME, Streptomyces phaeochromogenes IFO12898; details: E. coli JM109/pKSN657F cell suspension, compound at 100 ppm, shaking at 30° C., ethyl acetate layer, HPLC
Description: E. coli JM109/pKSN657F was cultured overnight at 37° C. in 3 ml of TB medium containing 50 μg/ml of ampicillin. A milliliter (1 ml) of the obtained culture medium was transferred to 100 ml of TB medium containing 50 μg/ml of ampicillin and cultured at 26° C. When OD660 reached about 0.5, 5-aminolevulinic acid was added to the final concentration of 500 μM, and the culturing was continued. Thirty (30) minutes thereafter, IPTG was added to a final concentration of 1 mM, and there was further culturing for 20 hours.
The cells were recovered from the culture medium, washed with 0.1M tris-HCl buffer (pH7.5) and suspended in 10 ml of 0.1M Tris-HCl buffer containing 1% glucose. Compound (VI) was added to the obtained cell suspension to a final concentration of 100 ppm and that was incubated with shaking at 30° C. At each of 0 hours after and 1 day after the start of shaking, 2 ml of the cell suspension were fractioned. Fifty microliters (50 μl) of 2N HCl were added to each and those were extracted with 2 ml of ethyl acetate. The obtained ethyl acetate layers were analyzed on a HPLC under reaction condition 1. Compared to the concentration of compound (VI) detected from the ethyl acetate layer prepared from the cell suspension at 0 hours after the start of shaking, the concentration of compound (VI) detected from the ethyl acetate later prepared from the cell suspension at 1 day after the start of shaking was lower. Further a peak, which was not detected from the ethyl acetate layer prepared from the cell suspension at 0 hours after the start of shaking, was detected from the ethyl acetate layer prepared from the cell suspension at 1 day after the start of shaking Mass spectrometry of the compound contained in said peak was conducted. […]
Other than utilizing compound (VIII) instead of compound (VI), there was conducted in accordance with the method described in Example 41(6), a culturing of E. coli JM109/pKSN657F, preparation of the cell suspension solution, incubation with shaking of the cell suspension solution to which compound (VIII) was added, reagent preparation from the cell suspension solution and HPLC analysis of the reagents. Compared to the concentration of compound (VIII) detected from the ethyl acetate layer prepared from the cell suspension at 0 hours after the start of shaking, the concentration of compound (VIII) detected from the ethyl acetate layer prepared from the cell suspension at 1 day after the start of shaking was lower. Further two peaks, which were not detected from the ethyl acetate layer prepared from the cell suspension at 0 hours after the start of shaking, were detected from the ethyl acetate layer prepared from the cell suspension at 1 day after the start of shaking Mass spectrometry of the compounds contained in said peaks were conducted. […]

[2] = tested on: present invention protein (A11); assay: Metabolism of compound (X) by the present invention protein (A11), E. coli JM109/pKSN849AF cell suspension; assay type: in vitro ADME, Streptomyces nogalator IFO13445; details: compound at 25 ppm, shaking at 30° C., fractioned at 0 hours and 4 days, ethyl acetate layer, HPLC
Description: Each of E. coli JM109/pKSN849AF and E. coli JM109/pKSN2 was cultured overnight at 37° C. in 3 ml of TB culture containing 50 μg/ml of ampicillin. A milliliter (1 ml) of the obtained culture mediums was transferred to 100 ml of TB medium containing 50 μg/ml of ampicillin and cultured at 26° C. When OD660 reached about 0.5, 5-aminolevulinic acid was added to the final concentration of 500 μM, and the culturing was continued. Thirty (30) minutes thereafter, IPTG was added to a final concentration of 1 mM, and there was further culturing for 18 hours.
The cells were recovered from the culture medium, washed with 0.1M tris-HCl buffer (pH7.5) and suspended in 10 ml of 0.1M Tris-HCl buffer containing 1% glucose. […] The obtained ethyl acetate layers were analyzed on a HPLC under reaction condition 1. Compared to the concentration of compound (X) detected from the ethyl acetate layer prepared from the JM109/pKSN2 cell suspension, the concentration of compound (X) detected from the ethyl acetate layer prepared from the JM109/pKSN849AF cell suspension was lower. Further 3 peaks, which were not detected from the ethyl acetate layer prepared from the JM109/pKSN2 cell suspension, were detected from the ethyl acetate layer prepared from the JM109/pKSN849AF cell suspension. […]

Q: Which results are given for `C=CCOC(=O)C(C)(C)OC(=O)c1cc(-n2c(=O)cc(C(F)(F)F)n(C)c2=O)ccc1Cl` [compound (X)]?
A: concentration of the compound detected from the cell suspension at 1 day compared to 0 hours after the start of shaking [1]: lower; concentration of the compound detected from the JM109/pKSN849AF cell suspension compared to the JM109/pKSN2 cell suspension [2]: lower
